Assay [1] relates to Phosphorylated Ribosomal Protein S6 (RPS6). Description: THP-1 RPS6 ELISA Assay. The following applies: THP-1 cells, read-out: PI3Kγ_THP1_RPS6_ELISA IC50. The format is cell-based, Human. The method, then: To measure the Phosphorylated Ribosomal Protein S6 (RPS6) in cell lysates, THP-1 cells (Human Acute Monocytic Leukemia) are purchased from ATCC (Manassas, Va.) and maintained in RPMI with 10% FBS (Gibco/Life Technologies, Carlsbad, Calif.). For the assay, THP-1 cells are serum starved overnight in RPMI, then plated in RPMI (2×10^5 cells/well in 90 μL) into 96-well flat-bottom tissue culture treated plates (Corning, Corning, N.Y.), in the presence or absence of a concentration range of test compounds. Covered plates are incubated for 2 hours at 37° C., 5% CO2 then treated with or without 10 nM MCP-1 (MYBioSource, San Diego, Calif.) for 15 minutes at 37° C., 5% CO2. Plates are centrifuged at 1600 RPM and supernatants are removed. Cells are lysed in Lysis Buffer (Cell Signaling, Danvers, Mass.) with Protease Inhibitor (Calbiochem/EMD, Germany), PMSF (Sigma, St Louis Mo.), HALTS (Thermo Fisher, Rockford, Ill.) for 30 min on wet ice. Cell lysates are frozen at −80° C. before testing. The lysates are tested in the Human/Mouse/Rat Phospho-RPS6 ELISA (R&D Systems, Inc. Minn, Minn.). The plate is measured using a microplate reader (SpectraMax M5 —Molecular Devices, LLC Sunnyvale, Calif.) set to 450 nm with a wavelength correction of 540. IC50 determination is performed by fitting the curve of inhibitor percent inhibition versus the log of the inhibitor concentration using the GraphPad Prism 5.0 software.
In general terms: ELISA stands for enzyme-linked immunosorbent assay.

Assay [2] has as its target PI3Kγ (p110γ) Recombinant Human Protein (Homo sapiens (Human), UniProt P48736). Description: PI3K-γ Scintillation Proximity Assay. In kind it is biochemical. The following applies: read-out: PI3Kγ IC50. In a few lines: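 Radiometric SPA readout: […] bound to WGA beads after overnight shaking, IC50 derived from % activity of DMSO control. Reaction used human p110γ, 2 μM ATP, 20 μM PIP2, pH 6.7 MOPS buffer with MgCl2, DTT, CHAPS, 2% DMSO, room temperature.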

Assay [3] concerns the target PI3Kδ (p110δ/p85α) Recombinant Human Protein (Homo sapiens (Human), UniProt O00329). Description: PI3Kδ Scintillation Proximity Assay. In kind it is biochemical. In a few lines: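 Radiometric read-out: 33P-labelled PIP3 product captured on WGA SPA beads and counted, with IC50 fitted from percent activity relative to DMSO control. Enzyme (3.4 nM) was incubated 120 min at room temperature with 20 μM PIP2 and 2 μM ATP at pH 6.7, 2% DMSO.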
Background: In a scintillation proximity assay essentially only radioactivity close to the scintillant gives light.

Where a name gives a salt, the structure may show the parent alone. Read-outs that look alike come from different tables or passages of the source.

Data on 20 compounds can be found in US10479795B2 (Incyte Corporation, priority 2016, dated 2019).

For orientation: IC50 means the concentration that gives 50% inhibition.

Sequence of PI3Kδ (p110δ/p85α) Recombinant Human Protein (O00329 whole entry): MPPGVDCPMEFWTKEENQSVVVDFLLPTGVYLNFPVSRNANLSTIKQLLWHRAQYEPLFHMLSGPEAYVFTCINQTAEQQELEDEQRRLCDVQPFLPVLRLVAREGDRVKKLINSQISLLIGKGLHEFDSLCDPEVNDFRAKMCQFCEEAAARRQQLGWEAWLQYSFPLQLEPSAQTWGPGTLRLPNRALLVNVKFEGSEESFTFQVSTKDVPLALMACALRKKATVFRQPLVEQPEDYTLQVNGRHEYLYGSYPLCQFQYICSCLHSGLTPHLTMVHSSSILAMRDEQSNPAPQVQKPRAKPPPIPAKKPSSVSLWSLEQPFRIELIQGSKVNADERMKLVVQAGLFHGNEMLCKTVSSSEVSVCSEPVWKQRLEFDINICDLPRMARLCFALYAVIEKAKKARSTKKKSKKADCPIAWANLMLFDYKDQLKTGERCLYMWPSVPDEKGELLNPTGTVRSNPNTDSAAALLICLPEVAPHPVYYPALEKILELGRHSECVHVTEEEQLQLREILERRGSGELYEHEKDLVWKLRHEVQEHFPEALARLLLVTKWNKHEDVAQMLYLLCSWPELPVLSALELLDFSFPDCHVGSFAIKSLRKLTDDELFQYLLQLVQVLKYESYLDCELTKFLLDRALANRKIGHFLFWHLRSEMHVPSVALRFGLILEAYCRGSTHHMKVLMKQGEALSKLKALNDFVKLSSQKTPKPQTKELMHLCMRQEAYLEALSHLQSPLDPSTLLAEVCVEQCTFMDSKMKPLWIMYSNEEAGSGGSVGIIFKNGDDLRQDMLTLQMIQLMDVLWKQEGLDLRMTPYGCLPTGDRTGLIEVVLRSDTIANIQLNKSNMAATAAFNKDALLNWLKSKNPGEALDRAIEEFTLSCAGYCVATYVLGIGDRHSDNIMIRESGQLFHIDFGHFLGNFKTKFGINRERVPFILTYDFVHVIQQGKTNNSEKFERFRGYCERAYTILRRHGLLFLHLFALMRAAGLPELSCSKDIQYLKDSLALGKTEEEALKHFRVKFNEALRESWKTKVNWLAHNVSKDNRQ
Sequence of PI3Kδ (p110δ/p85α) Recombinant Human Protein (P27986 whole entry partner): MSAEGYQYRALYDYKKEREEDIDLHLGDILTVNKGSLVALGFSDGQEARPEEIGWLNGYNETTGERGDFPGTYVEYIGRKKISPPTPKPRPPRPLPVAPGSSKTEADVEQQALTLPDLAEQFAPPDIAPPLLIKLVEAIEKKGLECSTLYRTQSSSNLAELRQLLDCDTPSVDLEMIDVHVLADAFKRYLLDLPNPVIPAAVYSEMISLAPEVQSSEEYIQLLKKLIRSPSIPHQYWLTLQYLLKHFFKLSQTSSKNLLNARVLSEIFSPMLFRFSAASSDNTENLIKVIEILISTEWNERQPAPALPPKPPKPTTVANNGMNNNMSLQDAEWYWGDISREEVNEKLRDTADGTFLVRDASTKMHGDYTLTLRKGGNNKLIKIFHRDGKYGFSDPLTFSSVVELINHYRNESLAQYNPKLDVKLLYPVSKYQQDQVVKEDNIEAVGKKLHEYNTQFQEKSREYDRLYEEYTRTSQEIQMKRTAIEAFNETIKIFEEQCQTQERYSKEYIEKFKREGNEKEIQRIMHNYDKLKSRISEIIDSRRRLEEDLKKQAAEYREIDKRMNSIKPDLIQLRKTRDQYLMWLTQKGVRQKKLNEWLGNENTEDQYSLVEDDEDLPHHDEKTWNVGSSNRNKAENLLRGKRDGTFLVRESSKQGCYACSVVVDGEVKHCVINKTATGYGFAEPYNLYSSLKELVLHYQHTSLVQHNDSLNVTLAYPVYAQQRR
Sequence of PI3Kγ (p110γ) Recombinant Human Protein (P48736 whole entry): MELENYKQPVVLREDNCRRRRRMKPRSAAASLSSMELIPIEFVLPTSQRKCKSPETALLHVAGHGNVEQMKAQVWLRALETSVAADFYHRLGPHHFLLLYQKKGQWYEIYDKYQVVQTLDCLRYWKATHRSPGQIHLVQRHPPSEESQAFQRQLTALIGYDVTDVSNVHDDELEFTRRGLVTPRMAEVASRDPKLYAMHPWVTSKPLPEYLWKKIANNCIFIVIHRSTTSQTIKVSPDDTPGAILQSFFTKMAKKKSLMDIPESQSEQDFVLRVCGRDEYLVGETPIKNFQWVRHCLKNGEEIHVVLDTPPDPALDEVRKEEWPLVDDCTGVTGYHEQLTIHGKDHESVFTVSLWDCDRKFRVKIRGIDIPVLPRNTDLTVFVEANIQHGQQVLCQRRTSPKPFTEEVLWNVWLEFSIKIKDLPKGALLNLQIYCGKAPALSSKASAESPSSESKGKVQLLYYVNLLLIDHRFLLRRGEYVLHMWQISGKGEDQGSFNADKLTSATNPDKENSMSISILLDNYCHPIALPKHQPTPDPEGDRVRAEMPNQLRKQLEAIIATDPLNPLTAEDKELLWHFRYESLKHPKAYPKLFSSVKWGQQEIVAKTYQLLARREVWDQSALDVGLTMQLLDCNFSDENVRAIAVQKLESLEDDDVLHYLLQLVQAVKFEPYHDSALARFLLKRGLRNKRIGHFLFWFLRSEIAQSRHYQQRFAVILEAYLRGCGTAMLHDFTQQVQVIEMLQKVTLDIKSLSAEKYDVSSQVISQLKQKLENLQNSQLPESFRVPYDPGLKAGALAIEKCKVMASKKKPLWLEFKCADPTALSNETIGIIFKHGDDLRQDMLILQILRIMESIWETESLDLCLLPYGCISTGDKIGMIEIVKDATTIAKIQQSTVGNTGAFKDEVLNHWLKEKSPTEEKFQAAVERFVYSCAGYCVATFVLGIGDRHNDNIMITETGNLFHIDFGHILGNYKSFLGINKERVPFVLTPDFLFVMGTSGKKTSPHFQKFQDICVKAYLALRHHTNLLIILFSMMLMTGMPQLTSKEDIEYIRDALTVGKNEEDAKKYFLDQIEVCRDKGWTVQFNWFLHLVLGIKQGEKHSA

On to `Cc1ccc(S(=O)(=O)NC23CC(C)(C2)C3)cc1-c1cnc2c(N)ncnn12` [Example 117, 3-(4-Aminoimidazo[1,2-f][1,2,4]triazin-7-yl)-4-methyl-N-(3-methylbicyclo[1.1.1]pentan-1-yl)benzenesulfonamide], for which the IC50 was 100 to 500 nM in assay [1], less than 100 nM in assay [2] and 500 to 2000 nM in assay [3].

With `Cc1ccc(S(=O)(=O)CCC(C)(C)O)cc1-c1cnc2c(N)nc(C(F)(F)F)cn12` [Example 495, 4-((3-(8-Amino-6-(trifluoromethyl)imidazo[1,2-a]pyrazin-3-yl)-4-methylphenyl)sulfonyl)-2-methylbutan-2-ol], the IC50 in assay [1] was greater than 1000 nM; in assay [2] it was less than 100 nM; in assay [3], 500 to 2000 nM.

Regarding `Cc1ccc(S(=O)(=O)N2CC3(COC3)C2)cc1-c1cnc2c(N)ncnn12` [Example 143, 7-(5-((2-oxa-6-azaspiro[3.3]heptan-6-yl)sulfonyl)-2-methylphenyl)imidazo[2,1-f][1,2,4]triazin-4-amine], the IC50 in assay [1] (Homo sapiens) is greater than 1000 nM; in assay [2], less than 100 nM; in assay [3], 100 to 500 nM.

For the compound `Cc1ccc(S(=O)(=O)NC23CCC(C(F)F)(CC2)OC3)cc1-c1cnc2c(N)ncnn12` [Example 436, 3-(4-aminoimidazo[1,2-f][1,2,4]triazin-7-yl)-N-(1-(difluoromethyl)-2-oxabicyclo[2.2.2]octan-4-yl)-4-methylbenzenesulfonamide trifluoroacetate salt], the values for the IC50 in assay [1] (Homo sapiens), in assay [2] and in assay [3] were 100 to 500 nM, less than 100 nM and 100 to 500 nM, respectively.

For `Cc1ccc(S(=O)(=O)NC23CCC(C(C)(C)O)(CC2)OC3)cc1-c1cnc2c(N)nc(C(F)(F)F)cn12` [Example 441, 3-(8-Amino-6-(trifluoromethyl)imidazo[1,2-a]pyrazin-3-yl)-N-(1-(2-hydroxypropan-2-yl)-2-oxabicyclo[2.2.2]octan-4-yl)-4-methylbenzenesulfonamide trifluoroacetate salt], the results for the 50% inhibitory concentration (IC50) in assay [1] (Homo sapiens), in assay [2] and in assay [3] were 100 to 500 nM, less than 100 nM and 100 to 500 nM, respectively.

As to `Cc1ccc(S(=O)(=O)N[C@H]2CC[C@H](CF)OC2)cc1-c1cnc2c(N)ncnn12` [Example 467, 3-(4-Aminoimidazo[2,1-f][1,2,4]triazin-7-yl)-N-((3S,6R)-6-(fluoromethyl)tetrahydro-2H-pyran-3-yl)-4-methylbenzenesulfonamide], the IC50 in assay [1] (Homo sapiens) is less than 100 nM; in assay [2] it was less than 100 nM; in assay [3], 100 to 500 nM.

In the case of `Cc1ccc(S(=O)(=O)N[C@H]2CC[C@](O)(C(F)(F)F)CC2)cc1-c1cnc2c(N)ncnn12` [Example 124, 3-(4-aminoimidazo[2,1-f][1,2,4]triazin-7-yl)-N-[cis-4-hydroxy-4-(trifluoromethyl)cyclohexyl]-4-methylbenzenesulfonamide], the IC50 in assay [1] is 100 to 500 nM; in assay [2], less than 100 nM; in assay [3] it was 100 to 500 nM.

As to `[2H]C([2H])([2H])c1nc(N)c2ncc(-c3cc(S(=O)(=O)NCC(C)(C)O)cc(F)c3C([2H])([2H])[2H])n2n1` [Example 469, 3-(4-Amino-2-(methyl-d3)imidazo[2,1-f][1,2,4]triazin-7-yl)-5-fluoro-N-(2-hydroxy-2-methylpropyl)-4-(methyl-d3)benzenesulfonamide], the IC50 in assay [1] (Homo sapiens) was 100 to 500 nM; in assay [2], less than 100 nM; in assay [3], 100 to 500 nM.

Consider `COC(=O)C12CC(NS(=O)(=O)c3ccc(C)c(-c4cnc5c(N)ncnn45)c3)(C1)C2` [Example 88, Methyl 3-(3-(4-aminoimidazo[1,2-f][1,2,4]triazin-7-yl)-4-methylphenylsulfonamido)bicyclo[1.1.1]pentane-1-carboxylate trifluoroacetate salt], for which the IC50 in assay [1] was less than 100 nM; in assay [2], less than 100 nM; in assay [3], 100 to 500 nM.

For `Cc1cn2c(-c3ccc(F)c(S(=O)(=O)NC45CCC(C#N)(C4)C5)c3)cnc2c(N)n1` [Example 380, 5-(8-Amino-6-methylimidazo[1,2-a]pyrazin-3-yl)-N-(4-cyanobicyclo[2.1.1]hexan-1-yl)-2-fluorobenzenesulfonamide trifluoroacetate salt], the IC50 in assay [1] (Homo sapiens) was greater than 1000 nM; in assay [2], less than 100 nM; in assay [3] it was 500 to 2000 nM.

For `Cc1cc(-c2cn3c(-c4cc(S(=O)(=O)N[C@H]5CC[C@H](O)CC5)ccc4C)cnc3c(N)n2)on1` [Example 75, 3-[8-Amino-6-(3-methylisoxazol-5-yl)imidazo[1,2-a]pyrazin-3-yl]-N-(trans-4-hydroxycyclohexyl)-4-methylbenzenesulfonamide], the IC50 in assay [1] (Homo sapiens) was 100 to 500 nM; in assay [2], less than 100 nM; in assay [3], less than 100 nM.

“5-(4-Amino-2-(trifluoromethyl)imidazo[1,2- f][1,2,4]triazin-7-yl)-2-chloro-N-(4- (hydroxymethyl)bicyclo[1.1.1]hexan-1- yl)benzenesulfonamide [Example 419]”: the IC50 in assay [1] was greater than 1000 nM; in assay [2], less than 100 nM.

As to `Cc1ccc(S(C)(=O)=O)cc1-c1cnc2c(N)nc(C(=O)NCC3CCC(C(F)(F)F)CC3)cn12` (mixture of isomers) [Example 456, 8-amino-3-(2-methyl-5-(methylsulfonyl)phenyl)-N-((4-(trifluoromethyl)cyclohexyl)methyl)imidazo[1,2-a]pyrazine-6-carboxamide trifluoroacetate salt (1:1 cis/trans isomers)], the IC50 in assay [2] and in assay [3] was 100 to 500 nM throughout.

For the compound `Cc1ccc(S(=O)(=O)NCC2(C)COC2)cc1-c1cnc2c(N)cccn12` [Example 3, 3-(8-Aminoimidazo[1,2-a]pyridin-3-yl)-4-methyl-N-[(3-methyloxetan-3-yl)methyl]benzenesulfonamide trifluoroacetate], the results for the half-maximal inhibitory concentration (IC50) in assay [2] and in assay [3] were 100 to 500 nM and greater than 2000 nM, respectively.

In the case of `Cc1ccc(S(=O)(=O)N2CCC3(CC2)COC(=O)N3)cc1-c1cnc2c(N)ncnn12` [Example 193, 8-((3-(4-Aminoimidazo[2,1-f][1,2,4]triazin-7-yl)-4-methylphenyl)sulfonyl)-3-oxa-1,8-diazaspiro[4.5]decan-2-one], the IC50 was less than 100 nM in assay [2] and 500 to 2000 nM in assay [3].

For the compound `CCS(=O)(=O)Nc1cc(-c2cnc3c(N)cc(Cl)cn23)c[nH]c1=O` [Example 6, N-[5-(8-Amino-6-chloroimidazo[1,2-a]pyridin-3-yl)-2-oxo-1,2-dihydropyridin-3-yl]ethanesulfonamide trifluoroacetate], the results for the IC50 in assay [2] and in assay [3] were 500 to 2000 nM and greater than 2000 nM, respectively.

Regarding `Cc1ccc(S(=O)(=O)N2CCCC2c2c(C)noc2C)cc1-c1cnc2c(N)nc(C(F)(F)F)cn12` (stereo not drawn) [Example 300, 3-(5-((2-(3,5-dimethylisoxazol-4-yl)pyrrolidin-1-yl)sulfonyl)-2-methylphenyl)-6-(trifluoromethyl)imidazo[1,2-a]pyrazin-8-amine], the 50% inhibitory concentration (IC50) in assay [2] is less than 100 nM; in assay [3], 500 to 2000 nM.

Turning to `CCN(CC)CCCCNC(=O)c1cn2c(-c3cc(S(C)(=O)=O)ccc3C)cnc2c(N)n1` [Example 452, 8-Amino-N-(4-(diethylamino)butyl)-3-(2-methyl-5-(methylsulfonyl)phenyl)imidazo[1,2-a]pyrazine-6-carboxamide trifluoroacetate salt], the IC50 is greater than 2000 nM in assay [2] and 100 to 500 nM in assay [3].

For `COc1ccc(S(=O)(=O)NC23CCC(C#N)(C2)C3)cc1-c1cnc2c(N)ncnn12` [Example 372, 3-(4-Aminoimidazo[1,2-f][1,2,4]triazin-7-yl)-N-(4-cyanobicyclo[2.1.1]hexan-1-yl)-4-methoxybenzenesulfonamide trifluoroacetate salt], the IC50 is less than 100 nM in assay [2] and 500 to 2000 nM in assay [3].

As to `COCCN1CCCC(NC(=O)c2cn3c(-c4cc(S(C)(=O)=O)ccc4C)cnc3c(N)n2)C1` (stereo not drawn) [Example 458, 8-Amino-N-(1-(2-methoxyethyl)piperidin-3-yl)-3-(2-methyl-5-(methylsulfonyl)phenyl)imidazo[1,2-a]pyrazine-6-carboxamide trifluoroacetate salt], the IC50 is 500 to 2000 nM in assay [2] and greater than 2000 nM in assay [3].
